Reference: US11891386B2, “Indole compounds and their use” (ARIAGEN, INC., priority 2017, dated 2024)
Where two headings read alike, the source gives them in different places.

Tests used:
[1] = In vivo pharmacokinetic study in Sprague-Dawley rats; details: rat; for bioavailability: Sprague-Dawley, plasma, po, 10 mg/kg, PO (10 mg/kg) vs IV (2 mg/kg), read-out: F % (bioavailability); for % of Hepatisc Blood Flow: IV (2 mg/kg)
Experimental: This example describes pharmacokinetic (PK) studies of the various indole compounds described herein in rats, a rodent species widely used for pre-clinical toxicology evaluation. In the present studies, the test compounds were given to groups of Sprague-Dawley rats (N=3 in each group) intravenously (IV) at 2 mg/kg or orally (PO) at 10 mg/kg. IV doses were formulated in DMSO, while PO doses were formulated in a 50/50 mixture of PEG400 and Tween 80. Blood samples were collected at pre-dose and over a period of 24 hours post-dose. Plasma concentrations of the indole compounds were determined by HPLC.

[2] = system: EMT-6 syngeneic mouse tumor model (breast cancer); assay: Anti-tumor activity, EMT-6 syngeneic mouse tumor model; type: in vivo; details: for inhibition in vivo at 40 mg/kg: EMT6, ip
Experimental: (§1) This example describes in vivo studies that evaluated the anti-cancer efficacy of the disclosed indole compounds in syngeneic mouse tumor models. Mice implanted subcutaneously with four types of cancer cells were treated with test indole compounds or vehicle controls as described below.
(§2) A monolayer culture of tumor cells was maintained in vitro in DMEM or RPMI1640 medium supplemented with 10% fetal bovine serum at 37° C. in an atmosphere of 5% CO2. Cells in exponential growth phase were harvested and quantitated by cell counter before tumor inoculation. The cell lines used are described in the table below.
(§3) Four subcutaneous syngeneic mouse tumor models were generated by innoculating female BALB/C or C57BL/6 mice with cancer cells at their right lower or front flank as detailed in the table below:
(§4) Each mouse was inoculated subcutaneously with tumor cells in 0.1 mL of PBS. Treatments were started when the mean tumor size reached approximately 80-120 mm^3 (around 100 mm^3). The administration of the indole compounds and the animal number in each study group are shown in the study design. The date of tumor cell inoculation was denoted as day 0.
(§5) The indole compounds were dissolved in DMSO at the final concentration of 26.7 mg/ml and stored at room temperature.
(§6) Randomization of animals was started when the mean tumor size reached approximately 90 mm^3 to form the mouse study groups. The randomization was performed based on “Matched distribution” method using the multi-task method (StudyDirector™ software, version 3.1.399.19)/randomized block design. The mouse groups (ten in each group) were treated with vehicle (DMSO) or the indole compounds at a dose of 40 mg/kg by i.p. injection, QD for 28 days or longer.
(§7) After tumor cell inoculation, the mice were checked daily for morbidity and mortality. During routine monitoring, the mice were checked for tumor growth and any effects of the treatment on behavior such as mobility, food and water consumption, body weight gain/loss (body weights were measured twice per week after randomization), eye/hair matting, and any other abnormalities. Mortality and observed clinical signs were recorded for individual mice in detail.
(§8) Tumor volumes were measured twice per week in two dimensions using a caliper, and the volume was expressed in mm^3 using the formula: V=(L×W×W)/2, where V is tumor volume, L is tumor length (the longest tumor dimension) and W is tumor width (the longest tumor dimension perpendicular to L). Dosing as well as tumor and body weight measurements was conducted in a Laminar Flow Cabinet. The body weights and tumor volumes were measured by using StudyDirector™ software (version 3.1.399.19). Dosing Holiday
Tumor growth inhibition percentage (TGI %) is an indicator for antitumor activity of a drug compound, and expressed as: TGI (%)=100×(1−T/C), where T and C are the mean tumor volume (or weight) of the treated and control groups, respectively, on a given day. Statistical analysis of the difference in mean tumor volume (MTV) among the groups was conducted using the data collected on the day when the MTV of the vehicle group reached the humane endpoints, so that TGI could be derived for all or most mice enrolled in the study.
In Studies 1 and 3, the anti-tumor activity of ARI-001 in parallel with ARI-002 at 160 mg/kg (mpk), and the anti-tumor activity of ARI-087 in parallel with ARI-002 at 40 mpk were assessed using the EMT-6, Pan02, A20, and LL/2 models. Because EMT-6 provides a fast-growing model that enables relatively quick differentiation of performance between compounds, this syngeneic mouse tumor model was chosen for the other studies. In Study 2, the anti-tumor activity of ARI-002 was compared with that of ARI-004 at 10, 40, and 80 mpk. In Study 4, the anti-tumor activity of ARI-087 was compared with that of ARI-140. In Study 5, the anti-tumor activity of ARI-087 was evaluated in parallel with ARI-143 and ARI-149 at 40 mpk. […]

[3] = system: Pan02 syngeneic mouse tumor model (pancreatic cancer); assay: Anti-tumor activity, Pan02 syngeneic mouse tumor model; type: in vivo
Experimental: as §1, §2, §3, §4, §5
Randomization of animals was started when the mean tumor size reached approximately 90 mm^3 to form the mouse study groups. […]
as §7
as §8, with “Dosing as well as tumor and body weight measurements was conducted in a Laminar Flow Cabinet.” left out, “Dosing Holiday” left out
(§9) Tumor growth inhibition percentage (TGI %) is an indicator for antitumor activity of a drug compound, and expressed as: TGI (%)=100×(1−T/C), where T and C are the mean tumor volume (or weight) of the treated and control groups, respectively, on a given day. […]
In Studies 1 and 3, the anti-tumor activity of ARI-001 in parallel with ARI-002 at 160 mg/kg (mpk), and the anti-tumor activity of ARI-087 in parallel with ARI-002 at 40 mpk were assessed using the EMT-6, Pan02, A20, and LL/2 models. […]

[4] = system: A20 syngeneic mouse tumor model (B cell lymphoma); assay: Anti-tumor activity, A20 syngeneic mouse tumor model; type: in vivo
Experimental: as §1, §2, §3, §4, §5, §6, §7, §8, §9
(§10) In Studies 1 and 3, the anti-tumor activity of ARI-001 in parallel with ARI-002 at 160 mg/kg (mpk), and the anti-tumor activity of ARI-087 in parallel with ARI-002 at 40 mpk were assessed using the EMT-6, Pan02, A20, and LL/2 models. […] In Study 5, the anti-tumor activity of ARI-087 was evaluated in parallel with ARI-143 and ARI-149 at 40 mpk. […]

[5] = system: LL/2 syngeneic mouse tumor model (lung cancer); assay: Anti-tumor activity, LL/2 syngeneic mouse tumor model; type: in vivo
Experimental: as §1, §2, §3, §4, §5, §6, §7, §8, §9, §10

hepatocytes = assay: Metabolite analysis in hepatocytes by high-resolution mass spectrometry; type: in vitro ADME; details: preliminary studies
Text: It remains unclear whether halogen substitutions at the indole ring impact the activity and metabolic profiles of the indole compounds described herein.

[6] = system: EMT-6 syngeneic mouse tumor model (breast cancer); assay: Anti-tumor activity, EMT-6 syngeneic mouse tumor model; type: in vivo; details: EMT6, 648 h, Study 2, EMT-6, 160 mpk, D27, read-out: TGI (tumor growth inhibition)
[7] = Separate PK study in mice; type: in vivo; details: data not shown
[8] = Mus musculus, 648 h, Study 3, EMT-6, 40 mpk i.p. QD, D27, read-out: TGI (tumor growth inhibition)
[9] = Study 3, Pan02, 40 mpk i.p. QD, D60
[10] = Study 3, A20, 40 mpk i.p. QD, D28

In the case of `CCC(=O)c1csc(C(=O)c2c[nH]c3ccc(F)cc23)n1` [ARI-087, 1-(2-(5-fluoro-1H-indole-3-carbonyl)thiazol-4-yl)propan-1-one], the bioavailability [1] is reported as 19.7%, the “IV AUCinf, % of that of ARI-002” value ([1]; IV) is reported as 45% and the “plasma clearance, times higher than ARI-002” value ([1]; IV) is reported as 3.2 times. The “% of Hepatisc Blood Flow” value [1] was 84%, the “PO AUCinf, % of that of ARI-002” value ([1]; PO) was 81% and the “absolute oral bioavailability, times higher than ARI-002” value ([1]; PO) was 1.8 times. The “anti-tumor potency, in words” value ([2]; EMT-6 model, 40 mpk) was “better tumor inhibitory activity than parent compound ARI-002”, the “tumor growth and survival, in words” value ([2]; EMT-6 model, 40 mpk) was “delayed tumor growth and prolonged survival” and the “complete tumor regression (CR)” value ([2]; EMT-6 model, Study 4, by day 46) was “did not result in a CR until day 81”. For the same molecule, the “complete tumor regression (CR)” value ([2]; EMT-6 model, Study 5, by day 51) was “did not have any animal in CR”, the “animals with tumor volumes<1000 mm^3” value ([2]; EMT-6 model, day 27, 40 mpk) was 6 out of 10 and the inhibition in vivo at 40 mg/kg ([2]; Mus musculus, 624 h, Study 6, EMT-6, 40 mpk i.p. QD, D26, read-out: TGI (tumor growth inhibition)) was 52.8%. It also gave an inhibition in vivo at 40 mg/kg [2, 8] of 56.7%, an inhibition in vivo at 40 mg/kg ([2]; Mus musculus, 672 h, Study 4, EMT-6, 40 mpk i.p. QD, D28, read-out: TGI (tumor growth inhibition)) of 29.5% and an inhibition in vivo at 40 mg/kg ([2]; Mus musculus, 720 h, Study 5, EMT-6, 40 mpk i.p. QD, D30, read-out: TGI (tumor growth inhibition)) of 42.2%. The “TGI (tumor growth inhibition)” value [3, 9] was 64.9% D60, the “TGI (tumor growth inhibition)” value [4, 10] was 20.9% D28 and the “tumor inhibitory activity compared to ARI-002, in words” value ([4]; Study 3, lymphoma model, 40 mpk) was “better tumor inhibitory activity than parent compound ARI-002”. The “TGI (tumor growth inhibition)” value ([5]; Study 3, LL/2, 40 mpk i.p. QD, D38) was 23.3% D38, the “tumor inhibitory activity compared to ARI-002, in words” value ([5]; Study 3, lung model, 40 mpk) was “better tumor inhibitory activity than parent compound ARI-002” and the “primary metabolites of the indole ring identified” value (hepatocytes) was “fewer primary metabolites of the indole ring”.
In the case of `COC(=O)c1csc(C(=O)c2c[nH]c3ccccc23)n1` [ARI-001, ITE], the bioavailability [1] is reported as 0.4%, the “% of Hepatisc Blood Flow” value [1] is reported as 289% and the inhibition in vivo at 160 mg/kg ([2]; Mus musculus, EMT6, 648 h, Study 1, EMT-6, 160 mpk, D27, read-out: TGI (tumor growth inhibition)) is reported as 53%. The “TGI (tumor growth inhibition)” value ([3]; Study 1, Pan02, 160 mpk, D28) was 74.2% D28, the “TGI (tumor growth inhibition)” value ([4]; Study 1, A20, 160 mpk, D26) was 54.5% D26 and the “TGI (tumor growth inhibition)” value ([5]; Study 1, LL/2, 160 mpk, D28) was 65.1% D28. It also gave an inhibition in vivo at 160 mg/kg [6] of 75.1%.
With `Cc1noc(-c2csc(C(=O)c3c[nH]c4ccccc34)n2)n1` [ARI-031, (1H-indol-3-yl)(4-(3-methyl-1,2,4-oxadiazol-5-yl)thiazol-2-yl)methanone] the bioavailability [1] was 6.3%, the “IV PK profile compared to ARI-001, ARI-002, and ARI-004, in words” value ([1]; IV) was “improved IV PK profiles” and the “% of Hepatisc Blood Flow” value [1] was 103%. The “PK improvement over ARI-001 and ARI-002, in words” value [7] was “confirms the improvement”.
With `Cc1nc(-c2csc(C(=O)c3c[nH]c4ccccc34)n2)no1` [ARI-030, (1H-indol-3-yl)(4-(5-methyl-1,2,4-oxadiazol-3-yl)thiazol-2-yl)methanone] the bioavailability [1] was 0.9%, the “IV PK profile compared to ARI-001, ARI-002, and ARI-004, in words” value ([1]; IV) was “improved IV PK profiles” and the “% of Hepatisc Blood Flow” value [1] was 28%. For the same molecule, the inhibition in vivo at 40 mg/kg [2, 8] was 21.9%, the “TGI (tumor growth inhibition)” value [3, 9] was 23.5% D60 and the “TGI (tumor growth inhibition)” value [4, 10] was −0.8% D28. The “TGI (tumor growth inhibition)” value ([5]; Study 3, LL/2, 40 mpk i.p. QD, D28) was 8.4% D28 and the “PK improvement over ARI-001 and ARI-002, in words” value [7] was “confirms the improvement”.
